Peptide text beside a SMILES is read from it. * marks the point of attachment. Cbz = O=C(OCc1ccccc1)*; CH2F = FC*
Columns and labels:
[1] = tested on: cell-free eukaryotic translation system on the basis of a cell extract from Spodoptera frugiperda (Sf21) insect cells; assay: Cell-free synthesis of SII-eYFP, fluorescence intensity (phosphorimager), Example 1; format: biochemical; conditions: dialysis system after 48 h, −V, +CI versus −CI, densitometric evaluation
Procedure: The expression of the model protein was analyzed in the batch system and the dialysis system (50 μl reaction chamber; 1000 μl feeding chamber; cut-off of the membrane=10 kDa) over a period of 48 h. The translation mixtures were each incubated in the batch system and the dialysis system with (+) and without (−) insect cell vesicles (V) and with (+) and without (−) caspase inhibitor (CI) (at 27° C. and 600 rpm). The protein synthesis was carried out in the presence of the radioactively labeled amino acid ^14C-leucine in order to be able to determine the quantity of de novo synthesized target protein by means of hot TCA precipitation and scintillation measurement. The translation reactions were interrupted at particular time points (0 h, 2 h, 4 h, 24 h and 48 h) and analyzed as follows: 5 μl of the mixture was precipitated in hot TCA or ice-cold acetone in each case. A further 5 μl was resuspended in 25 μl PBS. The remaining sample volume was separated by means of a centrifuging step into the supernatant fluid (SN) and the vesicular fraction (VF). […] The samples resuspended in PBS were examined in the phosphorimager system (Typhoon TRIO+ imager, GE Healthcare) for their fluorescence intensity. For this purpose, 25 μl samples were pipetted into each cavity of the Ibidi slides and measured, the excitation of the samples taking place at 488 nm and the emission being measured at 526 nm.

[2] = tested on: cell-free eukaryotic translation system on the basis of a cell extract from Spodoptera frugiperda (Sf21) insect cells; assay: Cell-free expression of Mel-Hb-EGF-eYFP, protein quantity in translation mixture and vesicular fraction; format: biochemical
Procedure: The three proteins were each expressed in the batch and dialysis systems without (−) and with (+) the addition of the caspase inhibitor (CI) in the presence of ^14C-leucine for 48 h (27° C.; 600 rpm, Eppendorf Thermomixer Comfort) and analyzed as in example 1. […] The expression of each of the three membrane proteins (ETB, 49.3 kDa; Hb-EGF, 51 kDa; bacteriorhodopsin, 26.9 kDa) was able to be increased in the dialysis system (comparison of the dialysis batches +CI and −CI) with the addition of the caspase inhibitor by approximately 100% (FIG. 2).
Here, the intention was to investigate whether the increase in the total protein quantity is also associated with an increase in the quantity of membrane protein translocated and integrated into the lipid layer of the vesicles. For this purpose, the translation mixtures of Mel-Hg-EGF-eYFP were separated by means of a centrifuging step into the supernatant fluid (SN) and the vesicular fraction (VF). Aliquots (5 μl) of these samples were used for determining the quantity of de novo synthesized protein or were investigated with regard to their fluorescence properties (FIG. 4).
FIG. 4A: The synthesis of Mel-Hb-EGF-eYFP was carried out in the batch (left) and dialysis system (right) in the absence (−) and in the presence (+) of DTT with the addition of the caspase inhibitor (Z-VAD-FMK) over 48 h at 27° C. and 600 rpm. Following the synthesis, the mixtures were separated by means of a centrifuging step into the supernatant fluid (SN) and the vesicular fraction (VF). For analysis of the fluorescence intensity of the samples, aliquots of the fractions (5 μl) were each diluted in 25 μl PBS and 25 μl of this mixture was pipetted to each cavity of the Ibidi slide and measured. Excitation of the samples was carried out at 488 nm with a phosphorimager (Typhoon TRIO+ Imager, GE Healthcare) and the emission measured at 526 nm.

[3] = tested on: cell-free eukaryotic translation system on the basis of a cell extract from Spodoptera frugiperda (Sf21) insect cells; assay: Cell-free synthesis of SII-eYFP, protein yield by 14C-leucine incorporation (hot TCA precipitation, scintillation); format: biochemical; conditions: −V, +CI
Procedure: The influence of the caspase inhibitor on the maximum achievable protein yield was initially investigated on the basis of the expression of the cytosolic protein SII-eYFP. This model protein is the enhanced yellow fluorescent protein (eYFP) which was fused at the N-terminus with an affinity tag (Strep-Tag, SII-Tag) and was present in the vector pIX3.0 (Qiagen). The expression of the model protein was analyzed in the batch system and the dialysis system (50 μl reaction chamber; 1000 μl feeding chamber; cut-off of the membrane=10 kDa) over a period of 48 h. The translation mixtures were each incubated in the batch system and the dialysis system with (+) and without (−) insect cell vesicles (V) and with (+) and without (−) caspase inhibitor (CI) (at 27° C. and 600 rpm). The protein synthesis was carried out in the presence of the radioactively labeled amino acid ^14C-leucine in order to be able to determine the quantity of de novo synthesized target protein by means of hot TCA precipitation and scintillation measurement. The translation reactions were interrupted at particular time points (0 h, 2 h, 4 h, 24 h and 48 h) and analyzed as follows: 5 μl of the mixture was precipitated in hot TCA or ice-cold acetone in each case. A further 5 μl was resuspended in 25 μl PBS. The remaining sample volume was separated by means of a centrifuging step into the supernatant fluid (SN) and the vesicular fraction (VF). Aliquots of 5 μl of these fractions were diluted in 25 μl PBS each. Following the TCA precipitation, the samples were separated from free radioactive amino acids via a vacuum-driven filtration system and underwent a scintillation measurement. After drying, the proteins precipitated in acetone were collected in a reducing sample buffer and separated electrophoretically.

[4] = tested on: Mel-hEGFR-eYFP in microsomes of the insect cell lysate; assay: Multiple (repetitive) synthesis of Mel-hEGFR-eYFP into microsomes of the insect cell lysate; format: biochemical, Spodoptera frugiperda
Procedure: A suitable method for increasing the concentration of a particular target protein in the lumen or the membrane of the insect cell vesicles lies in carrying out multiple syntheses. This procedure leads to a longer dwell time of the de novo synthesized target proteins in the translation mixture. For successful conversion, it is therefore absolutely necessary to ensure the stability of the target proteins even after relatively long incubation times (>1.5 h) in the translation mixture. For this purpose, the caspase inhibitor Z-VAD-FMK was added to the translation reaction. The multiple synthesis of the target protein was carried out as follows: the microsomes of the translation mixture incubated under standard conditions (27° C., 1.5 h) were pelleted with a centrifugation step at 16,000 g and resuspended in a new translation-active cell lysate without microsomes and incubated again for 1.5 h at 27° C. in the presence of the caspase inhibitor Z-VAD-FMK. In the present experimental example, the synthesis was repeated four times. Following each synthesis step, the yield of radioactively labeled protein in the translation mixture, the supernatant and the vesicular fraction were determined. In addition, 5 μl of the translation mix were precipitated in acetone and subsequently separated out electrophoretically. […] The addition of the caspase inhibitor to the translation reaction enables a synthesis of the target protein over a total of 6 h.

[5] = from synthesis steps 1 to 4, in presence of Z-VAD-FMK

For COC(=O)C[C@H](NC(=O)[C@H](C)NC(=O)[C@@H](NC(=O)OCc1ccccc1)C(C)C)C(=O)CF [Z-VAD-FMK, benzyloxycarbonyl-Val-Ala-Asp-[O-methyl]-fluoromethylketone] (Cbz-Val-Ala-Asp(OMe)-CH2F), the “fluorescence signal of SII-eYFP, fold more intense” value [1] was 3.7 times, the “total protein quantity of Mel-Hb-EGF-eYFP” value ([2]; batch 48 h +CI) was 12.1 µg/mL and the “Mel-Hb-EGF-eYFP in the vesicular fraction of the lysate” value ([2]; batch 48 h −DTT +CI) was 6.5 µg/mL. For the same compound, the “total protein quantity of Mel-Hb-EGF-eYFP” value ([2]; dialysis 48 h +CI) was 47.6 µg/mL, the “increase in total protein quantity of Mel-Hb-EGF-eYFP” value ([2]; dialysis 48 h +CI vs batch 48 h +CI) was 300% and the “increase in total protein quantity of Mel-Hb-EGF-eYFP” value ([2]; dialysis 48 h +CI vs dialysis 48 h −CI) was 130%. The “Mel-Hb-EGF-eYFP in the vesicular fraction of the lysate” value ([2]; dialysis 48 h −DTT +CI) was 31.4 µg/mL, the “protein yield of SII-eYFP” value ([3]; batch system after 48 h) was 17.3 µg/mL and the “protein yield of SII-eYFP” value ([3]; dialysis system after 48 h) was 90.8 µg/mL. The “increase of the maximum protein yield of SII-eYFP” value ([3]; dialysis system vs batch system, 48 h) was “approximately 400%”, the “total time over which synthesis of the target protein is enabled” value ([4]; four repeated syntheses of 1.5 h at 27° C. in presence of caspase inhibitor) was 6 h and the “increase of yield of target protein, total protein in the translation mixture” value [4, 5] was 110%. The “increase of yield of target protein, vesicular fraction” value [4, 5] was 180%.

— patent US9951366B2, “Cell-free protein synthesis method and device using a eukaryotic cell lysate in the presence of a caspase inhibitor and the use of a caspase inhibitor for increasing the yield and/or the stability of the synthesized proteins in such a method” (Fraunhofer-Gesellschaft zur Foerderung der angewandten …, priority 2013, dated 2018)
